# Laboratory results: patent publication US20190054051A1, “DOPA Formulations for Treatments of Parkinson's Disease” (The Board of Trustees of the Leland Stanford Junior …, priority 2017, published 2019)
# Columns and labels:
# hemiparkinsonian mice = test: Abnormal Involuntary Movements (AIMs) after chronic L-DOPA, Example 5; format: in vivo; conditions: daily L-DOPA (mixed with benserazide) injections, post-testing 15 days
# Protocol: Mice were anesthetized with 5% isoflurane (Isothesia, Henry Schein Animal Health, Dublin, Ohio) in 100% oxygen with a delivery rate of 51/minute until loss of righting reflex and mounted on a stereotaxis. The anesthesia was maintained with 1 to 1.5% isoflurane throughout the surgical procedure. Body temperature was maintained using heating pads; respiration was monitored every 10 minutes. Mice were treated with desipramine HCl (25 mg/kg i/p) 30 minutes before the infusion of 6-hydroxydopamine (6-OHDA). […]
# Measurement of Abnormal Involuntary Movements (AIMs) were quantified after chronic L-DOPA administration in hemiparkinsonian mice. In the pretesting sessions, mice were given daily injections of L-DOPA/benserazide (5/10 mg/Kg s/c) for 9 days; AIMs were assessed every 20 minutes for 3 hrs after injection every third day of L-DOPA injections. Total duration of contralateral abnormal movements of the tongue-orofacial muscles and forelimb, twisting of the body (dystonia), and locomotor (rotational) behavior were scored, as illustrated in FIG. 6E. […] After five days' rest, in the post-test phase, mice were administered DOPA-benserazide or one of the four ranitidine formulations (Form IA, IB, IIA, or IIB, as defined above) daily for 15 days; AIMs were again assessed every third day.
# Western blots were quantified using band densitometry in Image J software (NIH version). […]
# ChAT = ChAT immunoreactivity (fluorescence intensity) in cholinergic interneurons; parameters: species or system mice; conditions: mouse, in vivo
# Protocol: Immunohistochemical analysis was performed with commonly known procedures. Mice were transcardially perfused with ice-cold 4% paraformaldehyde in PBS 45 minutes after challenge with L-DOPA or DOPA-ranitidine formulations. The brain was dissected out, post-fixed in 4% PFA overnight at 4° C., and cryoprotected using 30% sucrose in PBS. Cryoprotected brains were stored at −80° C. For TH immunostaining 30 μm coronal sections were taken around both CPu and substantia nigra, to examine dopaminergic denervation at the level of striatum and neuronal cell body loss at the level of substantia nigra. For pERK, ChAT, FoxP and AFos B expression, only coronal sections at the level of striatum was used. Free-floating coronal sections were blocked in blocking buffer (PBS with 2% BSA, 0.3% TritonX-100) for 1 hr at room temperature with gentle rocking. Sections were then transferred to incubation solution (PBS with 1% BSA, 0.03% TritonX-100) and the respective primary antibody as shown in table 1 and incubated at 4° C. for 24-48 hrs with gentle shaking. The sections were mounted with fluorescein or DAPI containing mounting media and serial z stack images were taken using Zeiss laser scanning confocal microscope LSM 800 at Stanford Cell Sciences Imaging facility. […]
# 6-OHDA lesioned mice = test: Cylinder test, contralateral paw usage (akinesia); format: in vivo; conditions: single dose equivalent to 5 mg/Kg DOPA; DOPA = L-DOPA/Benserazide 5 and 10 mg/Kg s/c
structure (smiles),measurement,setting,value
"N[C@@H](Cc1ccc(O)c(O)c1)C(=O)O [L-DOPA, L-3,4-dihydroxyphenylalanine]",AIMs over the course of daily administration,hemiparkinsonian mice,increasing AIMs
same,"ChAT immunoreactivity (FI), lesioned side versus intact side",ChAT,slightly lower on the lesioned side than the intact side
same,contralateral paw usage compared to saline treatment,6-OHDA lesioned mice,significantly increased contralateral paw usage
